These are literature values, as cited in patent publication US11638700B2, “Iron/shikonin nano-composite and use thereof and method for preparing the same by supermolecular self-assembly” (Jilin University, priority 2020, dated 2023).

SMILES strings stand for the structures.

For this series the following is noted: generally considered.

`CC(C)=CC[C@@H](O)C1=CC(=O)c2c(O)ccc(O)c2C1=O` [shikonin]: the “solubility of shikonin in water” value is on record as “insoluble in water”.
